Data from patent US20240316022A1 (TYRA BIOSCIENCES, INC., priority 2021, published 2024).

Key:
Assay in all cases: Kinase binding assay (kinase-tagged T7 phage, qPCR), Kd
[1] = molecular target: T1, FGFR1 (Homo sapiens, UniProt P11362); details: read-out: FGFR1 (Kd nM)
T1 construct: made in house; host or cells: E. coli derived from BL21, infected with T7 phage
Procedure: (§1) Kinase-tagged T7 phage strains were prepared in an E. coli host derived from the BL21 strain. E. coli were grown to log-phase and infected with T7 phage and incubated with shaking at 32° C. until lysis. The lysates were centrifuged and filtered to remove cell debris. […] The liganded beads were blocked with excess biotin and washed with blocking buffer SeaBlock (Pierce), 1% BSA, 0.05% Tween 20, 1 mM DTT to remove unbound ligand and to reduce non-specific binding.
(§2) Kds were determined using an 11-point 3-fold compound dilution series with three DMSO control points. […] The compounds were then diluted directly into the assays such that the final concentration of DMSO was 0.9%. All reactions performed in polypropylene 384-well plate. Each was a final volume of 0.02 ml. […] The kinase concentration in the eluates was measured by qPCR.
(§3) Binding constants were calculated with a standard dose-response curve using the Hill equation: […]
(§4) The Hill Slope was set to −1. Curves were fitted using a non-linear least square fit with the Levenberg-Marquardt algorithm.

[2] = molecular target: T2, FGFR2 (Homo sapiens, UniProt P21802); details: read-out: FGFR2 (Kd nM)
T2 construct: made in house; host or cells: E. coli derived from BL21, infected with T7 phage
T2 sequence (P21802 22-821): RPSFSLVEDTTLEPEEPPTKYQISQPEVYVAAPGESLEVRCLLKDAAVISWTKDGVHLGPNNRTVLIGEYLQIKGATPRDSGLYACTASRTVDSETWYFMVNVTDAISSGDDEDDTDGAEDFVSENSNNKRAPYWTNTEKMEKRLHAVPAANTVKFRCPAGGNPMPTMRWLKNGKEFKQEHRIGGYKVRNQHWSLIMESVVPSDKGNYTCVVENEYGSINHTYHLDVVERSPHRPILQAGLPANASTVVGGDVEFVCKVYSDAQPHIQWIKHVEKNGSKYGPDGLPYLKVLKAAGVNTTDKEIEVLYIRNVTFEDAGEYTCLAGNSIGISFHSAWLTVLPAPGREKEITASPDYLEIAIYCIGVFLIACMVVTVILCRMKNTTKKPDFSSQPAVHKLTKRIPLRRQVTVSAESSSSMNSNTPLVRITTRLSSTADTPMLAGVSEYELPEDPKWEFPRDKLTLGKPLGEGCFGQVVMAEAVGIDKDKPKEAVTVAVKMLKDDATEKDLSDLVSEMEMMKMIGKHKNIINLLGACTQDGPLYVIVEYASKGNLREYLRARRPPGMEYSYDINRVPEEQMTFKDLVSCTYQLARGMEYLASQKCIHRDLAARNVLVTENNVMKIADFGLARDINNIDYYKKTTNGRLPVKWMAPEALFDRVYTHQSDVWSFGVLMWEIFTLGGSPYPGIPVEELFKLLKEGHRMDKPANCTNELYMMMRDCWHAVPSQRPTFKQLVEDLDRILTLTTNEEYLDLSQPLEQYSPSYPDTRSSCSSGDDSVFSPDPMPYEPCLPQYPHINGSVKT
Procedure: as §1, §2, §3, §4

[3] = molecular target: T3, FGFR3 (Homo sapiens, UniProt P22607); details: read-out: FGFR3 (Kd nM)
T3 construct: made in house; host or cells: E. coli derived from BL21, infected with T7 phage
T3 sequence (P22607 23-806): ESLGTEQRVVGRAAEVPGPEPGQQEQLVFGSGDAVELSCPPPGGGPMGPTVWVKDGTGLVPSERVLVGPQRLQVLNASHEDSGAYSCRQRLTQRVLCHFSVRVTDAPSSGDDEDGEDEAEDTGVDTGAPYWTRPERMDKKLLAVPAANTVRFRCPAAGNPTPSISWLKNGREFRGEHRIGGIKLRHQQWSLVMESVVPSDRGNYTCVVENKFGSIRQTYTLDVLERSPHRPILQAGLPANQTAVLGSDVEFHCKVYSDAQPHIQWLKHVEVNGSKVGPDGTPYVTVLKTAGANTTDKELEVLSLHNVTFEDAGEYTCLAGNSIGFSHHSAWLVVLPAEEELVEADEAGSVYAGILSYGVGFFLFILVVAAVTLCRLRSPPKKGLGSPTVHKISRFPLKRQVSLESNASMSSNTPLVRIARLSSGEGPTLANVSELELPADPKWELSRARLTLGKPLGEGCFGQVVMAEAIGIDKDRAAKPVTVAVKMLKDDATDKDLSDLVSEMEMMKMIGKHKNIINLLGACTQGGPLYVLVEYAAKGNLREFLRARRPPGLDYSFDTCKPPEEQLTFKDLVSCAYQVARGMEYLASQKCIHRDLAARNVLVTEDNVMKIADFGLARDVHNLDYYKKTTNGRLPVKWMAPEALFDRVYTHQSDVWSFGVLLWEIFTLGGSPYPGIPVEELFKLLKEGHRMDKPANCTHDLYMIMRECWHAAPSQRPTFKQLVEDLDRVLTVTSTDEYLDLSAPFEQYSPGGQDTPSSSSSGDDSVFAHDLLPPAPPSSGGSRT
Procedure: (§5) Kinase-tagged T7 phage strains were prepared in an E. coli host derived from the BL21 strain. E. coli were grown to log-phase and infected with T7 phage and incubated with shaking at 32° C. until lysis. The lysates were centrifuged and filtered to remove cell debris. Streptavidin-coated magnetic beads were treated with biotinylated small molecule ligands for 30 minutes at room temperature to generate affinity resins for kinase assays. The liganded beads were blocked with excess biotin and washed with blocking buffer SeaBlock (Pierce), 1% BSA, 0.05% Tween 20, 1 mM DTT to remove unbound ligand and to reduce non-specific binding. Binding reactions were assembled by combining kinases, liganded affinity beads, and test compounds in 1× binding buffer (20% SeaBlock, 0.17×PBS, 0.05% Tween 20, 6 mM DTT).
(§6) Test compounds were prepared as 111X stocks in 100% DMSO. Kds were determined using an 11-point 3-fold compound dilution series with three DMSO control points. All compounds for Kd measurements are distributed by acoustic transfer (non-contact dispensing) in 100% DMSO. The compounds were then diluted directly into the assays such that the final concentration of DMSO was 0.9%. All reactions performed in polypropylene 384-well plate. Each was a final volume of 0.02 ml. The assay plates were incubated at room temperature with shaking for 1 hour and the affinity beads were washed with wash buffer (1×PBS, 0.05% Tween 20). The beads were then re-suspended in elution buffer (1×PBS, 0.05% Tween 20, 0.5 μM non-biotinylated affinity ligand) and incubated at room temperature with shaking for 30 minutes. The kinase concentration in the eluates was measured by qPCR.
as §3, §4

[4] = molecular target: T4, FGFR4 (Homo sapiens, UniProt P22455); details: read-out: FGFR4 (Kd nM)
T4 construct: made in house; host or cells: E. coli derived from BL21, infected with T7 phage
T4 sequence (P22455 22-802): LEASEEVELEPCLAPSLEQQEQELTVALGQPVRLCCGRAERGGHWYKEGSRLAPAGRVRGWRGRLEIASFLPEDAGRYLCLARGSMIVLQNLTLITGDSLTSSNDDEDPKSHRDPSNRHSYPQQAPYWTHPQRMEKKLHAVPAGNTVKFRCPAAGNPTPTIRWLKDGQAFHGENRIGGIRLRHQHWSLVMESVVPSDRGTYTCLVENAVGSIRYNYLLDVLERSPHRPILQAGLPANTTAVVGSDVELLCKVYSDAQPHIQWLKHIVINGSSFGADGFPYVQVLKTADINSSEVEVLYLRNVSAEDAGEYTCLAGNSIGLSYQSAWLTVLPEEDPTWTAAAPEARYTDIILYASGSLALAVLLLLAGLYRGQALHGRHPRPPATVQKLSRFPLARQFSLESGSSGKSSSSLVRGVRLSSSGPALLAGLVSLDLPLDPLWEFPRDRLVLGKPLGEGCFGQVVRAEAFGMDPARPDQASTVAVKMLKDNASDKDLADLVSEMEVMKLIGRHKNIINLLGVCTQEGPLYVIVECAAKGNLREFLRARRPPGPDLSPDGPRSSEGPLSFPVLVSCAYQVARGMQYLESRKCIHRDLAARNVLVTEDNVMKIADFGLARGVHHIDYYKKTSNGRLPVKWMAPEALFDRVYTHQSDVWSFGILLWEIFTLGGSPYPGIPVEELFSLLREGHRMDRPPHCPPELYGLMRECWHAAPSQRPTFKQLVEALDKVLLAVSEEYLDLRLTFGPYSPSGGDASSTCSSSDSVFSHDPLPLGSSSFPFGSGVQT
Procedure: as §5, §6, §3, §4

T1 sequence (P11362 22-822): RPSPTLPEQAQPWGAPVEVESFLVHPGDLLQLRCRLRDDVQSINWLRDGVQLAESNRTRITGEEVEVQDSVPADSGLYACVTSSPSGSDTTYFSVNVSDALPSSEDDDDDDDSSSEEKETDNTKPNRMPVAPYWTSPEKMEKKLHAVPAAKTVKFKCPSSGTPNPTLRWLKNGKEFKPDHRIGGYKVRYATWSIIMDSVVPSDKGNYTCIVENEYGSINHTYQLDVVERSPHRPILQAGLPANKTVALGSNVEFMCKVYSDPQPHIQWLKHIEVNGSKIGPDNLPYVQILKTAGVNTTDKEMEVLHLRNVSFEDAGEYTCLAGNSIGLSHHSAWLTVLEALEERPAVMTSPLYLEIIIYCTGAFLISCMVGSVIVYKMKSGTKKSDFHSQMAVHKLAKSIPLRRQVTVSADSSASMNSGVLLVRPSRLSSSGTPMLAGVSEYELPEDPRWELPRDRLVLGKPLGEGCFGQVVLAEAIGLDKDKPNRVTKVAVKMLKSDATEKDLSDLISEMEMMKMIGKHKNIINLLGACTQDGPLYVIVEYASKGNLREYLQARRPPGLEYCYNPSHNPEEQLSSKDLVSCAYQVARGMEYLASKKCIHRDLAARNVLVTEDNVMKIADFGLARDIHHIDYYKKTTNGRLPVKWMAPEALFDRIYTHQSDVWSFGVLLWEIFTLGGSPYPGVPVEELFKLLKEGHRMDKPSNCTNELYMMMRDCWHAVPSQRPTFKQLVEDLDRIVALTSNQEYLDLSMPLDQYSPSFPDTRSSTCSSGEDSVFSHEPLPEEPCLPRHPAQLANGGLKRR

Row | SMILES | Kd [1] [nM] | Kd [2] [nM] | Kd [3] [nM] | Kd [4] [nM]
1 | COc1ncc(-c2n[nH]c3ccc(O[C@H](C)c4c(Cl)cncc4Cl)cc23)cc1NC(=O)c1ccccn1 [Example 2, (R)—N-(5-(5-(1-(3,5-Dichloropyridin-4-yl)ethoxy)-1H-indazol-3-yl)-2-methoxypyridin-3-yl)picolinamide] | > 1000 | > 1000 | > 1000 | 0.1 to 100
2 | COc1ncc(-c2n[nH]c3ccc(O[C@H](C)c4c(Cl)cncc4Cl)cc23)cc1NC(=O)c1cccc2cccnc12 [Example 3, (R)—N-(5-(5-(1-(3,5-Dichloropyridin-4-yl)ethoxy)-1H-indazol-3-yl)-2-methoxypyridin-3-yl)quinoline-8-carboxamide] | > 1000 | > 1000 | > 1000 | 250 to 1000
3 | COc1ncc(-c2n[nH]c3ccc(O[C@H](C)c4c(Cl)cncc4Cl)cc23)cc1NCc1ccnc(C)c1 [Example 6, (R)-5-(5-(1-(3,5-Dichloropyridin-4-yl)ethoxy)-1H-indazol-3-yl)-2-methoxy-N-((2-methylpyridin-4-yl)methyl)pyridin-3-amine] | > 1000 | > 1000 | > 1000 | 250 to 1000
4 | COc1ncc(-c2n[nH]c3ccc(O[C@H](C)c4c(Cl)cncc4Cl)cc23)cc1NC(=O)N1CCN(C)CC1 [Example 7, (R)—N-(5-(5-(1-(3,5-Dichloropyridin-4-yl)ethoxy)-1H-indazol-3-yl)-2-methoxypyridin-3-yl)-4-methylpiperazine-1-carboxamide] | > 1000 | > 1000 | 100 to 250 | 0.1 to 100
5 | C[C@@H](Oc1ccc2[nH]nc(-c3ccc(S(C)(=O)=O)nc3)c2c1)c1c(Cl)cncc1Cl [Example 10, (R)-5-(1-(3,5-Dichloropyridin-4-yl)ethoxy)-3-(6-(methylsulfonyl)pyridin-3-yl)-1H-indazole] | 0.1 to 100 | 0.1 to 100 | 0.1 to 100 | 0.1 to 100
6 | C[C@@H](Oc1ccc2[nH]nc(-c3ccc(NC(=O)C4CC4)nc3)c2c1)c1c(Cl)cncc1Cl [Example 11, (R)—N-(5-(5-(1-(3,5-Dichloropyridin-4-yl)ethoxy)-1H-indazol-3-yl)pyridin-2-yl)cyclopropanecarboxamide] | 0.1 to 100 | 100 to 250 | 0.1 to 100 | 0.1 to 100
7 | C[C@@H](Oc1ccc2[nH]nc(-c3ccc(NC(=O)N(C)C)nc3)c2c1)c1c(Cl)cncc1Cl [Example 14, 3-[5-[5-[(1R)-1-(3,5-dichloro-4-pyridyl)ethoxy]-1H-indazol-3-yl]-2-pyridyl]-1,1-dimethyl-urea] | 0.1 to 100 | 0.1 to 100 | 0.1 to 100 | 0.1 to 100
8 | COc1ncc(-c2n[nH]c3ccc(O[C@H](C)c4c(Cl)cncc4Cl)cc23)cc1NC(=O)CN(C)C [Example 15, N-[5-[5-[(1R)-1-(3,5-dichloro-4-pyridyl)ethoxy]-1H-indazol-3-yl]-2-methoxy-3-pyridyl]-2-(dimethylamino)acetamide] | > 1000 | > 1000 | 100 to 250 | 0.1 to 100
9 | C[C@@H](Oc1ccc2[nH]nc(-c3ccc(NC(=O)N4CCN(C)CC4)nc3)c2c1)c1c(Cl)cncc1Cl [Example 19, N-[5-[5-[(1R)-1-(3,5-dichloro-4-pyridyl)ethoxy]-1H-indazol-3-yl]-2-pyridyl]-4-methyl-piperazine-1-carboxamide] | 0.1 to 100 | 0.1 to 100 | 0.1 to 100 | 0.1 to 100
10 | C[C@@H](Oc1ccc2[nH]nc(-c3cnc4c(c3)N(C(=O)CN(C)C)CCO4)c2c1)c1c(Cl)cncc1Cl [Example 21, 1-[7-[5-[(1R)-1-(3,5-dichloro-4-pyridyl)ethoxy]-1H-indazol-3-yl]-2,3-dihydropyrido[2,3-b][1,4]oxazin-1-yl]-2-(dimethylamino)ethanone] | > 1000 | > 1000 | 250 to 1000 | 0.1 to 100
11 | C[C@@H](Oc1ccc2[nH]nc(-c3ccc(NC(=O)N4CCC(O)C4)nc3)c2c1)c1c(Cl)cncc1Cl (stereo partly drawn) [Example 24, N-[5-[5-[(1R)-1-(3,5-dichloro-4-pyridyl)ethoxy]-1H-indazol-3-yl]-2-pyridyl]-3-hydroxy-pyrrolidine-1-carboxamide] | 0.1 to 100 | 0.1 to 100 | 0.1 to 100 | 0.1 to 100

Second part, the compound after the results:

Row | Kd [1] [nM] | Kd [2] [nM] | Kd [3] [nM] | Kd [4] [nM] | SMILES
12 | 100 to 250 | 100 to 250 | 0.1 to 100 | 0.1 to 100 | COc1ncc(-c2n[nH]c3ccc(O[C@H](C)c4c(Cl)cncc4Cl)cc23)cc1N [Example 1, 5-[5-[(1R)-1-(3,5-dichloro-4-pyridyl)ethoxy]-1H-indazol-3-yl]-2-methoxy-pyridin-3-amine]
13 | > 1000 | > 1000 | 250 to 1000 | 250 to 1000 | COc1ncc(-c2n[nH]c3ccc(O[C@H](C)c4c(Cl)cncc4Cl)cc23)cc1NCc1ccccn1 [Example 4, (R)-5-(5-(1-(3,5-Dichloropyridin-4-yl)ethoxy)-1H-indazol-3-yl)-2-methoxy-N-(pyridin-2-ylmethyl)pyridin-3-amine]
14 | > 1000 | 100 to 250 | 250 to 1000 | 0.1 to 100 | COc1ncc(-c2n[nH]c3ccc(O[C@H](C)c4c(Cl)cncc4Cl)cc23)cc1NC(=O)N1CCOCC1 [Example 5, (R)—N-(5-(5-(1-(3,5-Dichloropyridin-4-yl)ethoxy)-1H-indazol-3-yl)-2-methoxypyridin-3-yl)morpholine-4-carboxamide]
15 | 0.1 to 100 | 0.1 to 100 | 0.1 to 100 | 0.1 to 100 | C[C@@H](Oc1ccc2[nH]nc(-c3ccc(C(N)=O)nc3)c2c1)c1c(Cl)cncc1Cl [Example 12, 5-[5-[(1R)-1-(3,5-dichloro-4-pyridyl)ethoxy]-1H-indazol-3-yl]pyridine-2-carboxamide]
16 | 250 to 1000 | 250 to 1000 | 100 to 250 | 0.1 to 100 | C[C@@H](Oc1ccc2[nH]nc(-c3cnc4c(c3)N(C(=O)N3CCOCC3)CCO4)c2c1)c1c(Cl)cncc1Cl [Example 18, [7-[5-[(1R)-1-(3,5-dichloro-4-pyridyl)ethoxy]-1H-indazol-3-yl]-2,3-dihydropyrido[2,3-b][1,4]oxazin-1-yl]-morpholino-methanone]
17 | 0.1 to 100 | 0.1 to 100 | 0.1 to 100 | 0.1 to 100 | C[C@@H](Oc1ccc2[nH]nc(-c3cnc(NC(=O)CN(C)C)c(F)c3)c2c1)c1c(Cl)cncc1Cl [Example 22, N-[5-[5-[(1R)-1-(3,5-dichloro-4-pyridyl)ethoxy]-1H-indazol-3-yl]-3-fluoro-2-pyridyl]-2-(dimethylamino)acetamide]
18 | > 1000 | > 1000 | 250 to 1000 | 0.1 to 100 | Cc1cc(C(=O)N2CCOc3ncc(-c4n[nH]c5ccc(O[C@H](C)c6c(Cl)cncc6Cl)cc45)cc32)ccn1 [Example 23, [7-[5-[(1R)-1-(3,5-dichloro-4-pyridyl)ethoxy]-1H-indazol-3-yl]-2,3-dihydro-pyrido[2,3-b][1,4]oxazin-1-yl]-(2-methyl-4-pyridyl)methanone]
19 | 0.1 to 100 | 0.1 to 100 | 0.1 to 100 |  | COc1cc(C#N)cc(-c2n[nH]c3cc(OC)c(O[C@H](C)c4c(C)cnnc4C)cc23)c1 [Example 101, (R)-3-(5-(1-(3,5-dimethylpyridazin-4-yl)ethoxy)-6-methoxy-1H-indazol-3-yl)-5-methoxybenzonitrile]
